Results from patent publication US10639295B2 (priority 2016, dated 2020).
Where two headings read alike, the source gives them in different places.

Columns and labels:
mouse melanoma B16 cells = format: in vivo, C57BL/6 mice; conditions: intravenous injection, equimolar to 5.00 mg/kg 4′-demethylepipodophyllotoxin; for curative effect on lung metastatic tumor: 22nd day after modeling; for tumor-bearing lung weight / number of lung metastasis tumor nodules: sacrificed on the 22nd day; for tumor-bearing lung weight: compared with control group (FIG. 3); for number of lung metastasis tumor nodules: compared with control group (FIG. 4)
Method: The experiment was performed according to the method reported by Small, 2014(3):524-535. C57BL/6 mice (male, 20±2 g, 6 to 8 week-old) were used and intravenously injected with mouse melanoma B16 cells in logarithmic growth phase. 5×10^5 cells were injected into each mouse to establish a melanoma lung metastasis model, and the mice were randomly divided into 5 groups (recorded as the 0th day). The injections for intravenous injecting used in the experiment were prepared according to Example 6. On the 4th, 7th and 13th day after the modeling, each group was subjected to intravenous injection for […]. 4′-demethylepipodophyllotoxin was provided at a dosage of 5.00 mg/kg, and etoposide, compound DC and compound DP were provided at equimolar amount with 4′-demethylepipodophyllotoxin, and the administration dosages were etoposide 7.36 mg/kg, compound DC 7.89 mg/kg, and compound DP 7.69 mg/kg, respectively. The control group was administered with equal amount of solvent. All mice were housed normally and sacrificed on the 22nd day after modeling. The lung tissue was immediately separated out, washed with physiological saline and weighed, and the number of tumor nodules was calculated.

[1] = for concentration in the lung compared with 4′-demethylepipodophyllotoxin original drug group and etoposide control group: 5 minutes after administration by tail intravenous injection (FIG. 1); for time for which a relatively high drug concentration in the lung lasted (retention time in the lung): after tail intravenous injection; for drug concentration in the lung compared with 4′-demethylepipodophyllotoxin original drug group and etoposide control group: at each time point after tail intravenous injection (FIG. 2); for lung relative uptake rate Re (AUC0-t,lung compound / AUC0-t,lung drug) / peak concentration ratio Ce in the lung (Cmax,lung compound / Cmax,lung drug): versus 4′-demethylepipodophyllotoxin original drug group; for lung relative uptake rate Re (AUC0-t,lung compound / AUC0-t,lung drug) / peak concentration ratio Ce in the lung (Cmax,lung compound / Cmax,lung drug) / lung relative uptake rate Re (AUC0-t,lung compound / AUC0-t,lung control) / peak concentration ratio Ce in the lung (Cmax,lung compound / Cmax,lung control): tail intravenous injection; for lung relative uptake rate Re (AUC0-t,lung compound / AUC0-t,lung drug) / lung relative uptake rate Re (AUC0-t,lung compound / AUC0-t,lung control) / peak concentration ratio Ce in the lung (Cmax,lung compound / Cmax,lung control): equimolar doses; for peak concentration ratio Ce in the lung (Cmax,lung compound / Cmax,lung drug): equimolar to 10.00 mg/kg 4′-demethylepipodophyllotoxin; for lung relative uptake rate Re (AUC0-t,lung compound / AUC0-t,lung control) / peak concentration ratio Ce in the lung (Cmax,lung compound / Cmax,lung control): versus etoposide control group
Method: 16 mg of 4′-demethylepipodophyllotoxin was accurately weighed, 5% DMSO, 20% polyethylene glycol 400 and 20% absolute ethanol were added to help dissolution, so as to prepare an injection for intravenous injection with a concentration of 2 mg/mL. 28 mg of etoposide was accurately weighed, and 5% DMSO, 20% polyethylene glycol 400 and 20% absolute ethanol were added to help dissolution, so as to prepare an injection for intravenous injection with a concentration of 3.5 mg/mL. 30.40 mg of compound DC or DP was accurately weighed, and 5% DMSO, 20% polyethylene glycol 400 and 20% absolute ethanol were added to help dissolution, so as to prepare an injection for intravenous injection with a concentration of 3.8 mg/mL.
200 Kunming mice (male, 20±2 g) were used, which were fasted for 12 h before the experiment and given free access to water. In the experiment, they were randomly divided into 4 groups and administered by tail intravenous injection. The administration of 4′-demethylepipodophyllotoxin was carried out with a dosage of 10.00 mg/kg. Etoposide, compound DC and compound DP were administered in equimolar amount as 4′-demethylepipodophyllotoxin, and the administration dosages were etoposide 14.71 mg/kg, compound DC 15.78 mg/kg, and compound DP 15.38 mg/kg, respectively. 5 minutes, 15 minutes, 30 minutes, 1 hour, 2 hours, 4 hours, 8 hours, 12 hours, 24 hours and 48 hours after administration, the blood was collected and the mice sacrificed in all groups. The whole blood was put into sodium heparin-containing EP tubes, centrifuged at 5000 rpm at 4° C. for 5 min, and the upper plasma was collected and frozen at −40° C. for use. The hearts, livers, spleens, lungs, kidneys, brains and pancreas of the mice were immediately separated, and the residual blood was washed away with physiological saline. The remaining water on the surfaces of the organs was absorbed with filter papers. The organs were weighed and physiological saline 2 times the volume of the organs was added for homogenization.
0.1 mL of mouse plasma and 0.1 mL of tissue homogenate were taken and put into a 0.5 mL EP tube, 0.3 mL of methanol was added to all the samples as a protein precipitant. The sample was subjected to vortex vibration for 5 minutes, and then centrifuged at 13000 rpm at 4° C. for 10 min. The supernatant was taken and filtered with a 0.22 μm organic filtration membrane, and 1 μL of the sample was taken and subjected to LC-MS/MS analysis.
LC-MS/MS Analysis Condition
Liquid phase conditions: Agilent 1200 Series High Resolution Rapid LC System (RRLC); chromatographic column: Agilent Diamonsil ODS column (50 mm×4.6 mm, 1.8 μm); mobile phase: for 4′-demethylepipodophyllotoxin, methanol:0.1% formic acid aqueous solution=50:50, for etoposide, acetonitrile:0.1% formic acid aqueous solution=35:65, for compound DC, methanol:0.1% formic acid aqueous solution=[…], and for compound DP, methanol:0.1% formic acid aqueous solution=34:66; flow rate: 0.4 mL/min; column temperature: 30° C.; and injection volume: 1 μL.
Mass spectra conditions: Agilent Triple Quadrupole Mass Spectrometry (6410B); the analytes were subjected to a multiple reaction monitoring (MRM) in positive mode: for 4′-demethylepipodophyllotoxin, etoposide, compound DC and compound DP, fragmentation voltages were 97 V, 148 V, 190 V and 169 V, respectively; collision cell voltages were 20 V, 12 V, 52 V and 36 V, respectively; and ionic reactions (m/z) were 401.1→185, 589.2→229, 632.3→86.1 and 616.3→58.1, respectively; drying gas temperature: 350° C.; drying gas flow rate: 10 L/min; atomization air pressure: 30 psi; and the capillary voltage: 4000V.
Each pharmacokinetic parameters were calculated by DAS3.2.5 software, and the formula for calculating the targeting ability evaluation index, i.e., peak concentration ratio Ce and relative uptake rate Re, were shown hereinafter. Celung=(Cmax,lung)compound/(Cmax,lung)drug or control Relung=(AUC0-t,lung)compound/(AUC0-t,lung)drug or control

SMILES: COc1cc([C@@H]2c3cc4c(cc3[C@@H](NC(=O)c3ccc(CN5CCN(C)CC5)cc3)[C@H]3COC(=O)[C@H]23)OCO4)cc(OC)c1O [compound DP]
- curative effect on lung metastatic tumor (mouse melanoma B16 cells): best curative effects
- tumor-bearing lung weight (mouse melanoma B16 cells): least
- number of lung metastasis tumor nodules (mouse melanoma B16 cells): least
- concentration in the lung compared with 4′-demethylepipodophyllotoxin original drug group and etoposide control group [1]: much higher
- time for which a relatively high drug concentration in the lung lasted (retention time in the lung) [1]: ≤ 12 h
- drug concentration in the lung compared with 4′-demethylepipodophyllotoxin original drug group and etoposide control group [1]: much higher
- lung relative uptake rate Re (AUC0-t,lung compound / AUC0-t,lung drug) [1]: 42.56 times
- peak concentration ratio Ce in the lung (Cmax,lung compound / Cmax,lung drug) [1]: 5.41 times
- lung relative uptake rate Re (AUC0-t,lung compound / AUC0-t,lung control) [1]: 24.81 times
- peak concentration ratio Ce in the lung (Cmax,lung compound / Cmax,lung control) [1]: 4.65 times

SMILES: COc1cc(C2c3cc4c(cc3C(O)C3COC(=O)C23)OCO4)cc(OC)c1O (stereo not shown) [4′-demethylepipodophyllotoxin, reference compound]
- curative effect on lung metastatic tumor (mouse melanoma B16 cells): improved the lung metastatic tumor to a certain degree
- tumor-bearing lung weight (mouse melanoma B16 cells): reduced the tumor-bearing lung weight
- number of lung metastasis tumor nodules (mouse melanoma B16 cells): decreases the number of lung metastasis tumor nodules
- concentration in the lung ([1]; one hour after the administration, tail intravenous injection 10.00 mg/kg): below the detectable limit

SMILES: COc1cc([C@@H]2c3cc4c(cc3[C@@H](NC(=O)c3ccc(CN(C)CCCN(C)C)cc3)[C@H]3COC(=O)[C@H]23)OCO4)cc(OC)c1O [compound DC]
- curative effect on lung metastatic tumor (mouse melanoma B16 cells): best curative effects
- tumor-bearing lung weight (mouse melanoma B16 cells): least
- number of lung metastasis tumor nodules (mouse melanoma B16 cells): least
- concentration in the lung compared with 4′-demethylepipodophyllotoxin original drug group and etoposide control group [1]: much higher
- time for which a relatively high drug concentration in the lung lasted (retention time in the lung) [1]: up to 48 hours
- drug concentration in the lung compared with 4′-demethylepipodophyllotoxin original drug group and etoposide control group [1]: much higher
- lung relative uptake rate Re (AUC0-t,lung compound / AUC0-t,lung drug) [1]: 168.38 times
- peak concentration ratio Ce in the lung (Cmax,lung compound / Cmax,lung drug) [1]: 5.29 times
- lung relative uptake rate Re (AUC0-t,lung compound / AUC0-t,lung control) [1]: 98.16 times
- peak concentration ratio Ce in the lung (Cmax,lung compound / Cmax,lung control) [1]: 4.54 times

SMILES: COc1cc([C@@H]2c3cc4c(cc3[C@@H](O[C@@H]3O[C@@H]5CO[C@@H](C)O[C@H]5[C@H](O)[C@H]3O)[C@H]3COC(=O)[C@H]23)OCO4)cc(OC)c1O [etoposide, reference compound]
- curative effect on lung metastatic tumor (mouse melanoma B16 cells): improved the lung metastatic tumor to a certain degree
- tumor-bearing lung weight (mouse melanoma B16 cells): reduced the tumor-bearing lung weight
- number of lung metastasis tumor nodules (mouse melanoma B16 cells): decreases the number of lung metastasis tumor nodules
- concentration in the lung ([1]; mouse, in vivo, iv, 14.71 mg/kg): below the detectable limit
